From PubChem BioAssay AID2060882 (Molecular Pharmacology Branch, DTP, NCI, 2025)

Test system: 898857-211-R-J1-PDC complex spheroids, growth % test/control
Assay: Anticancer human tumor 898857-211-R-J1-PDC patient-derived melanoma cell line growth inhibition [RAS]
Conditions: for IC50: curve of first compound; for viability, T/C: stronger effect = lower value
Procedure, shortened: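 Tumour cells grown as complex spheroids with HUVEC endothelial cells and mesenchymal stem cells, treated with RAS pathway inhibitor combinations. Each agent spans half-log steps from near clinical Cmax, or 10 microM where Cmax is unknown.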

[1] = second compound 0.0316 µM, first compound 0.0316 µM
[2] = second compound 0.0316 µM, first compound 0.1 µM
[3] = second compound 0.0316 µM, first compound 0.316 µM
[4] = second compound 0.0316 µM, first compound 1 µM
[5] = second compound 0.0316 µM, first compound 3.16 µM
[6] = second compound 0.0316 µM, first compound 10 µM
[7] = second compound 0.1 µM, first compound 0.0316 µM
[8] = second compound 0.1 µM, first compound 0.1 µM
[9] = second compound 0.1 µM, first compound 0.316 µM
[10] = second compound 0.1 µM, first compound 1 µM
[11] = second compound 0.1 µM, first compound 3.16 µM
[12] = second compound 0.1 µM, first compound 10 µM
[13] = second compound 0.316 µM, first compound 0.0316 µM
[14] = second compound 0.316 µM, first compound 0.1 µM
[15] = second compound 0.316 µM, first compound 0.316 µM
[16] = second compound 0.316 µM, first compound 1 µM
[17] = second compound 0.316 µM, first compound 3.16 µM
[18] = second compound 0.316 µM, first compound 10 µM
[19] = second compound 1 µM, first compound 0.0316 µM
[20] = second compound 1 µM, first compound 0.1 µM
[21] = second compound 1 µM, first compound 0.316 µM
[22] = second compound 1 µM, first compound 1 µM
[23] = second compound 1 µM, first compound 3.16 µM
[24] = second compound 1 µM, first compound 10 µM
[25] = second compound 0.00316 µM, first compound 0.0316 µM
[26] = second compound 0.00316 µM, first compound 0.1 µM
[27] = second compound 0.00316 µM, first compound 0.316 µM
[28] = second compound 0.00316 µM, first compound 1 µM
[29] = second compound 0.01 µM, first compound 0.0316 µM
[30] = second compound 0.01 µM, first compound 0.1 µM
[31] = second compound 0.01 µM, first compound 0.316 µM
[32] = second compound 0.01 µM, first compound 1 µM
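Note: spheroids exposed to compound for seven days before readout.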
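Throughout, for viability, T/C: 100% = DMSO vehicle control wells.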

`CC(Nc1ccc2c(c1)OCCn1cc(N3C(=O)OCC3C(F)F)nc1-2)C(N)=O` (stereo unspecified) + C#Cc1c(F)ccc2cc(O)cc(-c3ncc4c(N5CC6CCC(C5)N6)nc(OCC56CCCN5CC(F)C6)nc4c3F)c12 showed an IC50 (second compound 0.0316 µM) greater than 10000 nM, an IC50 (second compound 0.1 µM) greater than 10000 nM and an IC50 (second compound 0.316 µM) greater than 10000 nM. The IC50 (second compound 1 µM) was greater than 10000 nM, the IC50 (second compound 3.16 µM) was greater than 10000 nM and the IC50 (second compound 10 µM) was 89.7 nM. The viability, T/C [1] was 96.9%, the viability, T/C [2] was 98.4% and the viability, T/C [3] was 98.3%. For the same molecule, the viability, T/C [4] was 87.7%, the viability, T/C [5] was 97.8% and the viability, T/C [6] was 69.4%. For the same molecule, the viability, T/C [7] was 99.9%, the viability, T/C [8] was 90% and the viability, T/C [9] was 99.2%. It also gave a viability, T/C [10] of 98.4%, a viability, T/C [11] of 91.6% and a viability, T/C [12] of 69.9%. For the same molecule, the viability, T/C [13] was 106%, the viability, T/C [14] was 101% and the viability, T/C [15] was 92.5%. The viability, T/C [16] was 94.2%, the viability, T/C [17] was 87.3% and the viability, T/C [18] was 71.3%. It also gave a viability, T/C [19] of 108%, a viability, T/C [20] of 99.8% and a viability, T/C [21] of 104%. The viability, T/C [22] was 94.7%, the viability, T/C [23] was 83.4% and the viability, T/C [24] was 65.2%. For the same molecule, the viability, T/C (second compound 3.16 µM, first compound 0.0316 µM) was 98.1%, the viability, T/C (second compound 3.16 µM, first compound 0.1 µM) was 89.2% and the viability, T/C (second compound 3.16 µM, first compound 0.316 µM) was 94.3%. The viability, T/C (second compound 3.16 µM, first compound 1 µM) was 96.3%, the viability, T/C (second compound 3.16 µM, first compound 3.16 µM) was 82.8% and the viability, T/C (second compound 3.16 µM, first compound 10 µM) was 72.4%. For the same molecule, the viability, T/C (second compound 10 µM, first compound 0.0316 µM) was 59.6%, the viability, T/C (second compound 10 µM, first compound 0.1 µM) was 39.3% and the viability, T/C (second compound 10 µM, first compound 0.316 µM) was 47.1%. For the same molecule, the viability, T/C (second compound 10 µM, first compound 1 µM) was 40.1%, the viability, T/C (second compound 10 µM, first compound 3.16 µM) was 32% and the viability, T/C (second compound 10 µM, first compound 10 µM) was 20.5%.
With `Cc1nc(N2CCC3(CC2)COC(C)C3N)c(CO)nc1Sc1ccnc(N)c1Cl` (stereo unspecified) + C=CC(=O)N1CCN(c2nc(OCC3CCCN3C)nc3c(F)c(-c4nc(N)cc(C)c4C(F)(F)F)c(Cl)cc23)C(C)C1 the IC50 (second compound 0.00316 µM) was greater than 10000 nM, the IC50 (second compound 0.01 µM) was greater than 10000 nM and the IC50 (second compound 0.0316 µM) was greater than 10000 nM. It also gave an IC50 (second compound 0.1 µM) greater than 10000 nM, an IC50 (second compound 0.316 µM) greater than 10000 nM and an IC50 (second compound 1 µM) greater than 10000 nM. The viability, T/C [25] was 101%, the viability, T/C [26] was 92.4% and the viability, T/C [27] was 89%. The viability, T/C [28] was 82.2%, the viability, T/C (second compound 0.00316 µM, first compound 3.16 µM) was 98.5% and the viability, T/C (second compound 0.00316 µM, first compound 10 µM) was 92.1%. It also gave a viability, T/C [29] of 97.7%, a viability, T/C [30] of 94.6% and a viability, T/C [31] of 80.8%. It also gave a viability, T/C [32] of 91%, a viability, T/C (second compound 0.01 µM, first compound 3.16 µM) of 96.8% and a viability, T/C (second compound 0.01 µM, first compound 10 µM) of 81.1%. The viability, T/C [1] was 104%, the viability, T/C [2] was 102% and the viability, T/C [3] was 95.4%. For the same molecule, the viability, T/C [4] was 98.5%, the viability, T/C [5] was 97.3% and the viability, T/C [6] was 99.5%. The viability, T/C [7] was 96.4%, the viability, T/C [8] was 102% and the viability, T/C [9] was 95.6%. For the same molecule, the viability, T/C [10] was 94%, the viability, T/C [11] was 96.3% and the viability, T/C [12] was 91.7%. It also gave a viability, T/C [13] of 110%, a viability, T/C [14] of 102% and a viability, T/C [15] of 107%. For the same molecule, the viability, T/C [16] was 103%, the viability, T/C [17] was 98.1% and the viability, T/C [18] was 93.5%. The viability, T/C [19] was 110%, the viability, T/C [20] was 106% and the viability, T/C [21] was 92.9%. It also gave a viability, T/C [22] of 97.4%, a viability, T/C [23] of 107% and a viability, T/C [24] of 82.2%.
Molecule `O=C(c1ccc(F)c(F)c1Nc1ccc(I)cc1F)N1CC(O)([C@@H]2CCCCN2)C1` + C=CC(=O)N1CCN(c2nc(OCC3CCCN3C)nc3c(F)c(-c4nc(N)cc(C)c4C(F)(F)F)c(Cl)cc23)C(C)C1 has an IC50 (second compound 0.00316 µM) of 5.18 nM, an IC50 (second compound 0.01 µM) of 3.43 nM and an IC50 (second compound 0.0316 µM) of 4.61 nM. The IC50 (second compound 0.1 µM) was 5.75 nM, the IC50 (second compound 0.316 µM) was 6.85 nM and the IC50 (second compound 1 µM) was 8.71 nM. For the same molecule, the viability, T/C (second compound 0.00316 µM, first compound 0.00316 µM) was 60.9%, the viability, T/C (second compound 0.00316 µM, first compound 0.01 µM) was 33.6% and the viability, T/C [25] was 28.4%. The viability, T/C [26] was 21.8%, the viability, T/C [27] was 18.9% and the viability, T/C [28] was 16.4%. It also gave a viability, T/C (second compound 0.01 µM, first compound 0.00316 µM) of 50.9%, a viability, T/C (second compound 0.01 µM, first compound 0.01 µM) of 38.3% and a viability, T/C [29] of 26.4%. It also gave a viability, T/C [30] of 19.6%, a viability, T/C [31] of 15.8% and a viability, T/C [32] of 16%. The viability, T/C (second compound 0.0316 µM, first compound 0.00316 µM) was 56.3%, the viability, T/C (second compound 0.0316 µM, first compound 0.01 µM) was 38% and the viability, T/C [1] was 23.6%. It also gave a viability, T/C [2] of 23.6%, a viability, T/C [3] of 19.1% and a viability, T/C [4] of 15.3%. It also gave a viability, T/C (second compound 0.1 µM, first compound 0.00316 µM) of 60.6%, a viability, T/C (second compound 0.1 µM, first compound 0.01 µM) of 39.7% and a viability, T/C [7] of 28%. It also gave a viability, T/C [8] of 21.5%, a viability, T/C [9] of 17.6% and a viability, T/C [10] of 14%. The viability, T/C (second compound 0.316 µM, first compound 0.00316 µM) was 58.1%, the viability, T/C (second compound 0.316 µM, first compound 0.01 µM) was 46.9% and the viability, T/C [13] was 33.4%. For the same molecule, the viability, T/C [14] was 25.4%, the viability, T/C [15] was 19.1% and the viability, T/C [16] was 14.4%. The viability, T/C (second compound 1 µM, first compound 0.00316 µM) was 73.2%, the viability, T/C (second compound 1 µM, first compound 0.01 µM) was 40.8% and the viability, T/C [19] was 38.6%. The viability, T/C [20] was 23.5%, the viability, T/C [21] was 18.1% and the viability, T/C [22] was 14.5%.
